We go through 16 compounds from BindingDB's records for doi:10.1016/j.bmcl.2010.05.049 (University of Athens, 2010).

SMILES strings stand for the structures.

The assay is described as follows: Binding affinity to Influenza A Weybridge(H7N7) virus Matrix protein 2 by spectrophotometry.

By Kd is commonly meant the concentration at which binding is half-saturated. A higher Kd goes with weaker binding. Compound `CC1(N)C2CC3CC(C2)CC1C3` (stereo unspecified) yielded a Kd of 3600 nM. The value for `CCCC1(N)C2CC3CC(C2)CC1C3` (stereo unspecified) was 8710 nM; that for `C1CCC2(NC1)C1CC3CC(C1)CC2C3` (stereo unspecified) was 390 nM; that for `NC1C2CC3CC(C2)CC1C3` (stereo unspecified) [2-Adamantanamine] was 2360 nM. On to `CCC1CCC2(N1)C1CC3CC(C1)CC2C3` (stereo unspecified), for which binding was characterised by a dissociation constant (Kd) of 5580 nM. To `CCC1(N)C2CC3CC(C2)CC1C3` (stereo unspecified) belongs 6700 nM; to `NC1CCCCCCC1` [Cyclooctanamine], 1830 nM; to `C1CCC(C23CC4CC(CC(C4)C2)C3)NC1` (stereo unspecified), 1510 nM. To `CN1CCCC12C1CC3CC(C1)CC2C3` (stereo unspecified) belongs 2930 nM; to `NC12CC3CC(CC(C3)C1)C2` [SYMADINE], 320 nM; to `CC1CCC2(N1)C1CC3CC(C1)CC2C3` (stereo unspecified), 1500 nM.

On to `C1CNC(C23CC4CC(CC(C4)C2)C3)C1` (stereo unspecified), for which binding was characterised by a dissociation constant (Kd) of 510 nM. To `NC12CC3CC(C1)CC(F)(C3)C2` belongs 4860 nM; to `C1CNC2(C1)C1CC3CC(C1)CC2C3` (stereo unspecified), 1160 nM. To `O=C1CCC2(N1)C1CC3CC(C1)CC2C3` (stereo unspecified) belongs 1490 nM; to `NC1CCCCCC1` [Cycloheptanamine], 16200 nM.
